Measured values taken from PMC6615261, “Repurposing Azithromycin and Rifampicin Against Gram-Negative Pathogens by Combination With Peptidomimetics” (Frontiers in Cellular and Infection Microbiology, 2019).
Where two headings read alike, the source gives them in different places. Each block holds one molecule with its values, some of them ahead of it.

Assays:
K. pneumoniae ST258 [1] = assay: Potentiation of additional antibiotics (COMPAN1F plates), MIC; format: cell-based, Klebsiella pneumoniae
Procedure: (§1) Minimal inhibitory concentrations (MICs) of peptidomimetics, antibiotics and their combinations were determined by broth microdilution according to the Clinical Laboratory Standards Institute performance standards (Clinical and Laboratory Standards Institute, [2013]). […] Since rifampicin and azithromycin mainly are used to treat infections with Gram-positive pathogens only CLSI clinical breakpoints were available for such bacteria. […] Potentiation of additional antibiotics by peptidomimetics was determined by using commercial 96-well plates containing varied concentrations of standard antibiotics (COMPAN1F; Trek Diagnostic Systems Inc.). The peptidomimetics were added immediately prior to inoculation with pathogen, and then MICs were determined as above. The MICs of peptidomimetic/antibiotic combinations were determined according to the method above, and the concentration ratios were selected based upon checkerboard results with 2:1 and 1:4 ratio of peptidomimetic with rifampicin or azithromycin, respectively. Minimal bactericidal concentrations (MBCs) were determined by using growth-curve assay plates. MIC plates were prepared as above, and then the plates were incubated at 37°C with continuous shaking. Growth was recorded at 10 min intervals as optical density (OD) at 600 nm during 24 h. At 24 h, for wells without growth, a sample was diluted 10-fold in sterile saline (0.9% sodium chloride) and plated onto MHA, following CLSI guidelines (Clinical and Laboratory Standards Institute, [1999]).

K. pneumoniae ST258 [2] = test system: K. pneumoniae ST258
Procedure: (§2) The potential synergistic effects in peptidomimetic-antibiotic combinations were assessed by using a two-dimensional checkerboard assay (Garcia, [2010]). Briefly, twofold dilutions of peptide and antibiotic were prepared in MBH II media along the X- and Y-axis, respectively, in 96-well plates. The inoculum was added to the plates, and subsequently these were incubated for 18–20 h. All steps for inoculum preparation and broth microdilution were in accordance with the CLSI guidelines (Clinical and Laboratory Standards Institute, [2013]). The fractional inhibitory concentration index (FICI) was calculated as [MICA(A+B)/MICA(alone)] + [MICB(A+B)/MICB(alone)], where MICA(A+B) represents the MIC of antibiotic (A) in combination with peptidomimetic (B), while MICB(A+B) represents the MIC of peptidomimetic (B) in combination with antibiotic (A). MICA(alone) and MICB(alone) represent the MIC of each compound individually. FICI values of ≤0.5 were interpreted as synergy.

E. coli ST131 [3] = assay: Potentiation of additional antibiotics (COMPAN1F plates), MIC; format: cell-based, Escherichia coli
Procedure: as §1

K. pneumoniae ST258 [4] = assay: MIC by broth microdilution; format: cell-based, Klebsiella pneumoniae
Procedure: as §1

[5] = MTS/PMS cell viability assay; format: cell-based, mouse; conditions: mouse, NIH 3T3 fibroblasts, 1 h exposure, read-out: Cytotoxicity NIH 3T3 EC50 ± SD
Procedure: (§3) NIH 3T3 and HepG2 cells (both from ATCC, Manassas, VA, USA) were cultured in flat-bottomed 96-well MicroWell™ plates (NUNC, Roskilde, Denmark) at seeding densities of ~23,000 and ~22,000 cells/well, respectively, and then cultured for 22–24 h under standard culturing conditions (37°C, 5% CO2, humidified air) to reach 80–90% confluence. NIH 3T3 were cultured in Dulbecco's modified Eagle's medium (DMEM) supplemented with 10% (v/v) newborn-calf serum (NCS) (Gibco, Paisly, UK), while HepG2 were cultured in Eagle's minimum essential medium (EMEM) supplemented with 10% (v/v) fetal bovine serum (FBS, Gibco, Paisly, UK), sodium pyruvate (1 mM), and non-essential amino acids (1%, v/v). Both culturing media were further supplemented with penicillin (100 U/mL), streptomycin (100 μg/mL), and L-glutamine (2 mM).
(§4) Effect on cell viability was determined in NIH 3T3 fibroblasts and HepG2 hepatocytes by using the MTS/PMS assay measuring metabolic activity. Briefly, the adhered cells were washed with 37°C Hanks' balanced salt solution (HBSS from Sigma-Aldrich, St. Louis, MO, USA), containing 10 mM HEPES (AppliChem, Darmstadt, Germany), and adjusted to pH 7.4, and were then exposed for 1 h to 100 μL of test compound(s) dissolved in the appropriate culturing medium without serum for each cell line. After exposure the cells were washed with HBSS containing 10 mM HEPES (pH 7.4) and 100 μL of an MTS/PMS solution, consisting of 240 μg/mL MTS (Promega, Madison, WI, USA) and 2.4 μg/mL PMS (SigmaAldrich, Buchs, Switzerland) in HBSS, was added to the cells, which then were incubated for 1 h at 37°C with horizontal shaking under light protection. Absorbance was measured at 492 nm by using a POLARstar OPTIMA plate reader (BMG Labtech, Offenburg, Germany). The relative viability was calculated according to Equation (1) with absorbance values obtained after incubation of cells with test compound; incubation with SDS (0.2%, w/v in medium) defined 100% cell death (Abspos), while the absorbance of cells incubated with medium defined 0% cell death (Absneg).
(§5) (1) Relative viability(%)=(Abssample-Abspos)/(Absneg-Abspos)×100%
(§6) EC50 values were calculated by using GraphPad Prism 7 (GraphPad Software, La Jolla, CA, USA) via fitting of the relative cell viability to the concentration of the test compound by using Equation (2):
(§7) (2) Relative viability(%)= Top-Bottom/1+10^(LogIC50-Log[peptidomimetic]) ×Hill slope
(§8) With top and bottom representing the mean highest and lowest observed values, respectively. The Hill slope represents a factor for the steepness of the linear part of the curve. In order to prevent erroneous calculation, the top and bottom values were constrained to 100 and 0%, respectively. Data were collected from technical triplicates. The selectivity index was calculated as the average effect on cell viability (EC50 values for HepG2 and NIH 3T3 cells) divided by the MIC.

P. aeruginosa ATCC 27853 [6] = assay: MIC by broth microdilution; format: cell-based, Pseudomonas aeruginosa; conditions: peptidomimetic alone
Procedure: as §1

P. aeruginosa ATCC 27853 [7] = test system: P. aeruginosa ATCC 27853
Procedure: as §2

E. coli ST131 [8] = test system: E. coli ST131
Procedure: as §2

E. coli ST131 [9] = assay: MIC by broth microdilution; format: cell-based, Escherichia coli; conditions: peptidomimetic alone
Procedure: as §1

NIH 3T3 and HepG2 cells = assay: Effect on viability of mammalian cells (both cell lines); format: cell-based, mouse and human
Procedure: as §3, §4, §5, §6, §7
With top and bottom representing the mean highest and lowest observed values, respectively. The Hill slope represents a factor for the steepness of the linear part of the curve. […] The selectivity index was calculated as the average effect on cell viability (EC50 values for HepG2 and NIH 3T3 cells) divided by the MIC.

K. pneumoniae ST258 [10] = assay: Screening of peptidomimetic-antibiotic combinations (growth / growth inhibition); format: cell-based, Klebsiella pneumoniae; set-up: key to Growth in combination with RIF / Growth in combination with AZM: Growth (+); growth inhibition (–)
Procedure: as §1

MDR E. coli ST131 = assay: as above; format: cell-based, Escherichia coli; set-up: key to Growth in combination with RIF / Growth in combination with AZM: Growth (+); growth inhibition (–)
Procedure: as §1

[11] = MTS/PMS cell viability assay; format: cell-based; conditions: human, HepG2 hepatocytes, 1 h exposure, read-out: Cytotoxicity HepG2 EC50 ± SD
Procedure: as §3, §4, §5, §6, §7, §8

[12] = MIC of azithromycin combined with the labelled peptidomimetic
[13] = MIC of rifampicin combined with the labelled peptidomimetic
[14] = 0.5 μM peptidomimetic + 0.5 μg/mL rifampicin
[15] = peptidomimetic 0.5 μM + azithromycin 1 μg/mL
[16] = peptidomimetic 0.5 μM + rifampicin 0.5 μg/mL

MIC of antibiotic in presence of peptidomimetic 1 (K. pneumoniae ST258 [1]; + 1 μM peptidomimetic 1): >4 µg/mL
MIC of antibiotic in presence of peptidomimetic 15 (K. pneumoniae ST258 [1]; + 1 μM peptidomimetic 15): >4 µg/mL
MIC of antibiotic in presence of peptidomimetic 26 (K. pneumoniae ST258 [1]; + 1 μM peptidomimetic 26): 2 µg/mL
MIC (K. pneumoniae ST258 [1]; Klebsiella pneumoniae, no peptidomimetic, read-out: MIC of antibiotic alone): > 4 µg/mL
MIC of antibiotic alone (K. pneumoniae ST258 [1]; no peptidomimetic): >4 µg/mL
Antibiotic MIC alone (K. pneumoniae ST258 [2]; checkerboard): 125 µg/mL
MIC of antibiotic in presence of peptidomimetic 26 (E. coli ST131 [3]; + 0.25 μM peptidomimetic 26): >4 µg/mL
MIC of antibiotic in presence of peptidomimetic 1 (E. coli ST131 [3]; + 0.5 μM peptidomimetic 1): 4 µg/mL
MIC of antibiotic in presence of peptidomimetic 15 (E. coli ST131 [3]; + 0.5 μM peptidomimetic 15): >4 µg/mL
MIC (E. coli ST131 [3]; Escherichia coli, no peptidomimetic, read-out: MIC of antibiotic alone): > 4 µg/mL
Compound: CCC[C@@H]1C[C@@H](C(=O)N[C@@H]([C@H]2O[C@H](SC)[C@H](O)[C@@H](O)[C@H]2O)[C@H](C)Cl)N(C)C1 [Clindamycin]

MIC K. pneumoniae ST258 (K. pneumoniae ST258 [4]; peptidomimetic alone): 32 µM
MIC P. aeruginosa ATCC 27853 (P. aeruginosa ATCC 27853 [6]): 1 µM
Antibiotic MIC in combination (RIF) (P. aeruginosa ATCC 27853 [7]; P. aeruginosa ATCC 27853, MIC of rifampicin combined with the labelled peptidomimetic): 0.5 µg/mL
Peptidomimetic MIC alone (P. aeruginosa ATCC 27853 [7]; P. aeruginosa ATCC 27853, checkerboard): 1 µM
Peptidomimetic MIC in combination (P. aeruginosa ATCC 27853 [7]; P. aeruginosa ATCC 27853, combined with AZM): 0.5 µM
Peptidomimetic MIC in combination (P. aeruginosa ATCC 27853 [7]; P. aeruginosa ATCC 27853, combined with RIF): 0.5 µM
Reduction of the MIC of azithromycin (P. aeruginosa ATCC 27853 [7]; P. aeruginosa, sub-MIC concentrations of peptidomimetic): 32- to 512 fold
Antibiotic MIC in combination (AZM) (K. pneumoniae ST258 [2]; [12]): 8 µg/mL
Antibiotic MIC in combination (RIF) (K. pneumoniae ST258 [2]; [13]): 0.5 µg/mL
Peptidomimetic MIC alone (K. pneumoniae ST258 [2]; checkerboard): 32 µM
Peptidomimetic MIC in combination (K. pneumoniae ST258 [2]; combined with AZM): 0.5 µM
Peptidomimetic MIC in combination (K. pneumoniae ST258 [2]; combined with RIF): 0.5 µM
Antibiotic MIC in combination (AZM) (E. coli ST131 [8]; [12]): 1 µg/mL
Antibiotic MIC in combination (RIF) (E. coli ST131 [8]; [13]): 0.5 µg/mL
Peptidomimetic MIC alone (E. coli ST131 [8]; checkerboard): 1 µM
Peptidomimetic MIC in combination (E. coli ST131 [8]; combined with AZM): 0.13 µM
Peptidomimetic MIC in combination (E. coli ST131 [8]; combined with RIF): 0.13 µM
MIC E. coli ST131 (E. coli ST131 [9]): 1 µM
Compound: CC(=O)N[C@@H](CCCCN)C(=O)N(CCC(=O)N[C@@H](CCCCN)C(=O)N(CCC(=O)N[C@@H](CCCCN)C(=O)N(CCC(=O)N[C@@H](CCCCN)C(=O)N(CCC(=O)N[C@@H](CCCCN)C(=O)N(CCC(=O)N[C@@H](CCCCN)C(=O)N(CCC(=O)N[C@@H](CCCCN)C(=O)N(CCC(=O)N[C@@H](CCCCN)C(=O)N(CCC(N)=O)Cc1ccccc1)Cc1ccccc1)Cc1ccccc1)Cc1ccccc1)Cc1ccccc1)Cc1ccccc1)Cc1ccccc1)Cc1ccccc1 [Peptidomimetic 15, Ac-(Lys-βNPhe)8-NH2]
Selectivity Index (SI) K. pneumoniae ST258 (K. pneumoniae ST258 [4]; average of EC50 (HepG2, NIH 3T3) divided by MIC): (5)
EC50 at 1 h [5]: 217 ± 23.1 µM
EC50 (NIH 3T3 and HepG2 cells): > 100 µM
Screening result with rifampicin (K. pneumoniae ST258 [10]; [14]): inhibit growth
Growth in combination with AZM (K. pneumoniae ST258 [10]; [15]): +
Growth in combination with RIF (K. pneumoniae ST258 [10]; [16]): –
Screening result with rifampicin (MDR E. coli ST131; [14]): inhibit growth
Growth in combination with AZM (MDR E. coli ST131; [15]): –
Growth in combination with RIF (MDR E. coli ST131; [16]): –
EC50 at 1 h [11]: 121.37 ± 0.06 µM
